From article PMC11461078 (Oxidative Medicine and Cellular Longevity, 2024)
Read-outs that look alike come from different tables or passages of the source.

Experiments:
CCF-STTG1 cells [1] = assay: ROS production (cytochrome C reduction) under oxidative stress; format: cell-based, human; conditions: for reduction of ROS production compared to H2O2 200 μM: H2O2 200 μM pretreatment, 24 hr treatment, green tea 100 μM, saffron 25 μM, citicoline 100 μM, trans-R 1 µM, MIX
Description: In a second set of experiments, the CCF-STTG1 cell line was pretreated with 200 μM H2O2 for 30 min to explore the effects of the combination under oxidative stress conditions compared to the single agents by analysing cell viability, ROS, and NO productions. In addition, inflammatory biomarkers (TNFα and IL-2), BDNF production, and intracellular apoptotic and neurodegenerative markers activated were also analysed by ELISA kit. A standard procedure based on cytochrome C reduction on CCF-STTG1 cells quantified superoxide anion release. After treatment, 100 μL of cytochrome C (1 mg/mL, Merck Life Science, Rome, Italy) and 100 μL of superoxide dismutase (0.1 mg/mL, Merck Life Science, Rome, Italy) were added to each sample for 30 min in an incubator. At 550 nm, a spectrophotometer (Infinite 200 […], Männedorf, Switzerland) assessed absorbance in cell culture supernatants. O2 rate was represented as the mean SD (%) of nanomoles per decreased cytochrome C per microgram of protein relative to the control (0 line).

human = test system: human; set-up: method as in PMID 23403474; conditions: 500 mg per day for 2 weeks; cited from earlier work
[2] = test system: BBB in vitro model (CCF-STTG1 cocultured with HUVEC on Transwells); conditions: human
rats = test system: rats; set-up: method as in PMID 29470767; conditions: tramadol toxicity, 30 mg/kg orally for 28 consecutive days; cited from earlier work
BDNF = BDNF quantification ELISA under oxidative stress; format: cell-based, human; conditions: H2O2 200 μM
Description: (§1) Human BDNF ELISA Kit (Thermo ScientificTM, Waltham, MA, United States) quantified BDNF in CCF-STTG1 cell supernatants following the manufacturer's instructions. Each well received a biotinylated detection antibody, and the plate was incubated at room temperature for 1 hr. After 45 min of HRP-conjugated streptavidin incubation, TMB substrate solution was added for 30 min, and a stop solution terminated the reaction. To calculate BDNF concentration, absorbance was measured at 450 nm using a spectrometer (Infinite 200 Pro MPlex, Tecan, Männedorf, Switzerland) and compared to the standard curve (0.066–16 ng/mL). The data are presented as mean ± SD (%) compared to the untreated control sample. The cells were also given 10 ng/mL BDNF as a positive control.
as §1, with “Elisa” for “ELISA”, “The data are presented as mean ± SD (%) compared to the untreated control sample. The cells were also given 10 ng/mL BDNF as a positive control.” left out

CCF-STTG1 cells [3] = assay: Cell viability (MTT) under oxidative stress (200 µM H2O2 pretreatment); format: cell-based, human; conditions: H2O2 200 μM
Description: In a second set of experiments, the CCF-STTG1 cell line was pretreated with 200 µM H2O2 for 30 min to explore the effects of the combination under oxidative stress conditions compared to the single agents by analysing cell viability, ROS, and NO productions. In addition, inflammatory biomarkers (TNFα and IL-2), BDNF production, and intracellular apoptotic and neurodegenerative markers activated were also analysed by ELISA kit.
A 96-well plate was used to measure cell viability of CCF-STTG1 cells after each stimulation using MTT-based In Vitro Toxicology Assay Kit (Merck Life Science, Milan, Italy), as reported in the literature. After stimulating cells, 1% MTT dye was incubated at 37°C in an incubator with 5% CO2 and 95% humidity, and purple formazan crystals were dissolved in MTT solubilisation solution after 2 hr. In addition, during the quantification, the background interference due to the extract was considered by making an empty sample (without cells but with the treatment), which was subtracted. To assess cell viability, absorbance at 570 nm with 690 nm correction was measured using a spectrometer (Infinite 200 Pro MPlex, Tecan, Männedorf, Switzerland) and compared to the control (0 line, which is 100% viable cells) and expressed in percentage.

pTau = assay: Tau (Phospho) [pS199] ELISA under oxidative stress; format: cell-based, human; conditions: H2O2 200 μM pretreatment
Description: Tau (Pospho) protein was investigated by Tau (Phospho) [[…]] Human ELISA Kit (Thermo ScientificTM, Waltham, MA, USA) on CCF-STTG1 cell lysates. In summary, 100 μL of each sample was added to the plate, incubated at 37°C for 90 min, removed, and washed three times. Next, add 100 μL of detection solution A to each well and incubate at 37°C for 45 min. Post-incubation, wash wells, add 100 μL detection solution B, and incubate at 37°C for 45 min. After adding 90 μL of substrate solution, the plate was incubated at 37°C for 20 min in the dark. The reaction was stopped with 50 μL of stop solution, and the absorbance was measured at 450 nm using a spectrometer (Infinite 200 […], Männedorf, Switzerland). Results are shown as mean SD (%) relative to the control, and concentration is reported in ng/mL by comparing data to the standard curve (15.6-1,000 pg/mL).

Row | SMILES | reduction of ROS production compared to H2O2 200 μM (CCF-STTG1 cells [1]) | Permeability values (Papp) ([2]; 4 h) [×10⁻⁶ cm/s] | Permeability values (Papp) ([2]; 12 h) [×10⁻⁶ cm/s] | Permeability values (Papp) ([2]; 24 h) [×10⁻⁶ cm/s] | also measured
1 | C[N+](C)(C)CCOP(=O)(O)OP(=O)([O-])OC[C@H]1O[C@@H](n2ccc(N)nc2=O)[C@H](O)[C@@H]1O [citicoline, cytidine diphosphate (CDP)-choline] | about 37% | 0.2 | 0.58 | 0.44 | serum malondialdehyde (MDA) levels (human): significantly decreased; vigilance, visual working memory, oxidative stress markers compared to placebo (human): improve human vigilance, visual working memory, and oxidative stress markers
2 | CC(/C=C/C=C(\C)C(=O)O[C@@H]1O[C@H](CO[C@@H]2O[C@H](CO)[C@@H](O)[C@H](O)[C@H]2O)[C@@H](O)[C@H](O)[C@H]1O)=C\C=C\C=C(C)\C=C\C=C(/C)C(=O)O[C@@H]1O[C@H](CO[C@@H]2O[C@H](CO)[C@@H](O)[C@H](O)[C@H]2O)[C@@H](O)[C@H](O)[C@H]1O [crocin] |  |  |  |  | learning and memory (rats): improved learning and memory
3 | OO [H2O2] |  |  |  |  | increase in ROS production compared to the control (CCF-STTG1 cells [1]; H2O2 200 μM): about 42%; reduction of BDNF production vs control (BDNF): ~ 30%; decrease in cell viability compared to the control (CCF-STTG1 cells [3]): about 22%
4 | Oc1ccc(/C=C/c2cc(O)cc(O)c2)cc1 [trans-R, trans-Resveratrol] | about 46% | 0.2 | 0.83 | 0.53 | pTau expression (in words) (pTau): inhibits its expression, similar to the MIX
